The target in the experiment is T1, PD-1/PD-L1 (Homo sapiens, UniProt Q9NZQ7).
T1 construct: purchased CisBio
Nature of the experiment: PD1-PDL1 HTRF assay. The conditions noted are these: PD-1/PD-L1 homogenous time-resolved fluorescence (HTRF) binding assay; Tag1-PDL1 5 nM, Tag2-PD1 50 nM. An excerpt: The CisBio HTRF assay kit, purchased from CisBio only, was employed to determine the IC50 values of compounds. The PD1-PDL1 HTRF assay measures the interactions between the two proteins, PD1 and PDL1. The interaction is detected by using anti-Tag1 labeled with Europium (HTRF donor) which binds to PDL1 and anti-Tag2 labeled with XL665 (HTRF acceptor) which binds to PD1. When the two antibodies are in proximity, the excitation of the donor fluorophore results in FRET emission from the acceptor fluorophore. The presence of inhibitors for such an interaction result in reduction of HTRF signal.
The assay was conducted in 96-well white assay plates. All the reagents, including Tag1-PDL1, Tag2-PD1, Anti-Tag1-PDL1, Anti-Tag2-PD1 were thawed and diluted with PPI Europium Detection buffer to achieve the desired concentration as per the manufacturer's protocol. A 1000 μM stock solution of test inhibitors was prepared in DMSO. The stock solution was diluted in DMSO to prepare 8 concentrations (1000-0.001 μM). These stock solutions were further diluted in PPI Europium detection buffer to prepare 8 working stock solutions (100-0.0001 μM). To the 96-well plate, 2 μL of the test inhibitor working stock solutions were added followed by 4 μL of Tag1-PDL1 (5 nM) and 4 μL of Tag2-PD1 (50 nM). The plate was incubated at room temperature for 15 min. Subsequently, 10 μL of pre-mixed Anti-Tag1-PDL1 and Anti-Tag2-PD1 solution was added. The plate was sealed and incubated at room temperature for 1 h. The HTRF signal was read on Perkin Elmer Envision plate reader using excitation wavelength of 320 nm, emission wavelengths of 620 nm and 665 nm. Results were obtained by calculating the ratio of signal from acceptor at 665 nm to that of signal from donor at 620 nm multiplied by […]. The IC50 values were determined by the Hill equation using GraphPad Prism software.
A general note: In TR-FRET formats the signal depends on donor and acceptor labels being close together.

T1 sequence (Q9NZQ7 19-238 limits assumed): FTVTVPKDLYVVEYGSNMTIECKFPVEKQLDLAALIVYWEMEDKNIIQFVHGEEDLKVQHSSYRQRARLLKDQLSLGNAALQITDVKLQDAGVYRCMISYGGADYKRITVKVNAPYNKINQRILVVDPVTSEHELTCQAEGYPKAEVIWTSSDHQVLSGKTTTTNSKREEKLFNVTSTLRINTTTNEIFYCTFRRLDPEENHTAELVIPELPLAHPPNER

As for `Cc1c(-c2ccccc2)cccc1-c1ccn2c(-c3ccc(CN4CCCCC4C(=O)O)cc3)cnc2c1` (racemic) [Example 1, 1-(4-(7-(2-methyl-[1,1′-biphenyl]-3-yl)imidazo[1,2-a]pyridin-3-yl)benzyl) piperidine-2-carboxylic acid], the IC50 (as a rule, the concentration that inhibits the measured activity by half) was in the range of 100 to 1000 nM. In the case of `Cc1c(-c2ccc3c(c2)OCCO3)cccc1-c1ccn2c(-c3ccc(CN4CCOCC4C(=O)O)cc3)cnc2c1` (racemic) [Example 33, 4-(4-(7-(3-(2,3-dihydrobenzo[b][1,4]dioxin-6-yl)-2-methylphenyl)imidazo[1,2-a]pyridin-3-yl)benzyl)morpholine-3-carboxylic acid] it was 100 to 1000 nM. Then `Cc1c(-c2ccc3c(c2)OCCO3)cccc1-c1ccn2c(-c3ccc(CN4CCOCC4C(=O)O)cc3)cnc2c1` (single isomer, unassigned) [Example 34, 4-(4-(7-(3-(2,3-dihydrobenzo[b][1,4]dioxin-6-yl)-2-methylphenyl)imidazo[1,2-a]pyridin-3-yl)benzyl)morpholine-3-carboxylic acid], with 100 to 1000 nM.

As for `Cc1c(-c2ccc3c(c2)OCCO3)cccc1-c1ccn2c(-c3ccc(CN4CCOCC4C(=O)O)cc3)cnc2c1` (single isomer, unassigned) [Example 35, 4-(4-(7-(3-(2,3-dihydrobenzo[b][1,4]dioxin-6-yl)-2-methylphenyl)imidazo[1,2-a]pyridin-3-yl)benzyl)morpholine-3-carboxylic acid], the half-inhibitory concentration (IC50) fell in the range of 100 to 1000 nM.

For `Cc1c(-c2ccccc2)cccc1-c1ccn2c(-c3ccc(CN4CCC[C@H]4C(=O)O)cc3)cnc2c1` [Example 2, (4-(7-(2-methyl-[1,1′-biphenyl]-3-yl)imidazo[1,2-a]pyridin-3-yl)benzyl)proline], the IC50 was 10 to 100 nM. Compound `Cc1c(-c2ccccc2)cccc1-c1ccn2c(-c3ccc(CNC4(C(=O)O)COC4)cc3)cnc2c1` [Example 3, 3-((4-(7-(2-methyl-[1,1′-biphenyl]-3-yl)imidazo[1,2-a]pyridin-3-yl)benzyl)amino)oxetane-3-carboxylic acid] returned an IC50 of 100 to 1000 nM.

`Cc1c(-c2ccccc2)cccc1-c1ccn2c(-c3ccc(CN4C[C@H](O)C[C@H]4C(=O)O)cc3)cnc2c1` [Example 4, (2S,4R)-4-hydroxy-1-(4-(7-(2-methyl-[1,1′-biphenyl]-3-yl)imidazo[1,2-a]pyridin-3-yl)benzyl)pyrrolidine-2-carboxylic acid] returned a half-inhibitory concentration (IC50) of 100 to 1000 nM.

`Cc1c(-c2ccccc2)cccc1-c1ccn2c(-c3ccc(CNC4(C(=O)O)CCC4)cc3)cnc2c1` [Example 5, 1-((4-(7-(2-methyl-[1,1′-biphenyl]-3-yl)imidazo[1,2-a]pyridin-3-yl)benzyl)amino)cyclobutane-1-carboxylic acid] registered a half-inhibitory concentration (IC50) of 100 to 1000 nM. In the case of `Cc1c(-c2ccccc2)cccc1-c1ccn2c(-c3ccc(CN4CCOCC4C(=O)O)cc3)cnc2c1` (stereo not shown) [Example 6, 4-(4-(7-(2-methyl-[1,1′-biphenyl]-3-yl)imidazo[1,2-a]pyridin-3-yl)benzyl)morpholine-3-carboxylic acid] it was 100 to 1000 nM; in that of `Cc1c(-c2ccccc2)cccc1-c1ccn2c(-c3ccc(CN4CC(C(=O)O)C4)cc3)cnc2c1` [Example 7, 1-(4-(7-(2-methyl-[1,1′-biphenyl]-3-yl)imidazo[1,2-a]pyridin-3-yl)benzyl)azetidine-3-carboxylic acid], 100 to 1000 nM. Turning to `Cc1c(-c2ccccc2)cccc1-c1ccn2c(-c3ccc(CNCCCO)cc3)cnc2c1` [Example 8, 3-((4-(7-(2-methyl-[1,1′-biphenyl]-3-yl)imidazo[1,2-a]pyridin-3-yl)benzyl)amino)propan-1-ol], the IC50 was in the range of 100 to 1000 nM. `Cc1c(-c2ccccc2)cccc1-c1ccn2c(-c3ccc(CN[C@H](C(=O)O)C(C)C)cc3)cnc2c1` [Example 9, (4-(7-(2-methyl-[1,1′-biphenyl]-3-yl)imidazo[1,2-a]pyridin-3-yl)benzyl)valine] had an IC50 of 100 to 1000 nM.

`Cc1c(-c2ccccc2)cccc1-c1ccn2c(-c3ccc(CN4CCC[C@H]4C(=O)O)cc3)cnc2c1` [Example 10, (4-(7-(2-methyl-[1,1′-biphenyl]-3-yl)imidazo[1,2-a]pyridin-3-yl)benzyl)-L-proline]: the IC50 was in the range of 100 to 1000 nM. Then `Cc1c(-c2ccccc2)cccc1-c1ccn2c(-c3ccc(CN4CCC[C@@H]4C(=O)O)cc3)cnc2c1` [Example 11, (4-(7-(2-methyl-[1,1′-biphenyl]-3-yl)imidazo[1,2-a]pyridin-3-yl)benzyl)-D-proline], with 100 to 1000 nM; and `Cc1c(-c2ccccc2)cccc1-c1ccn2c(-c3ccc(CNCC(=O)O)cc3)cnc2c1` [Example 12, (4-(7-(2-methyl-[1,1′-biphenyl]-3-yl)imidazo[1,2-a]pyridin-3-yl)benzyl)glycine], with 100 to 1000 nM. In the case of `Cc1c(-c2ccccc2)cccc1-c1ccn2c(-c3ccc(CN4CC[C@H]4C(=O)O)cc3)cnc2c1` [Example 13, (S)-1-(4-(7-(2-methyl-[1,1′-biphenyl]-3-yl)imidazo[1,2-a]pyridin-3-yl)benzyl)azetidine-2-carboxylic acid] it was 100 to 1000 nM; in that of `Cc1c(-c2ccccc2)cccc1-c1ccn2c(-c3ccc(CNCC(O)CC(=O)O)cc3)cnc2c1` (stereo not shown) [Example 14, 3-hydroxy-4-((4-(7-(2-methyl-[1,1′-biphenyl]-3-yl)imidazo[1,2-a]pyridin-3-yl)benzyl)amino) butanoic acid], 100 to 1000 nM. Then `Cc1c(-c2ccccc2)cccc1-c1ccn2c(-c3ccc(CNCCCO)cc3)nnc2c1` [Example 15, 3-((4-(7-(2-methyl-[1,1′-biphenyl]-3-yl)-[1,2,4]triazolo[4,3-a]pyridin-3-yl)benzyl)amino)propan-1-ol], with 100 to 1000 nM; and `Cc1c(-c2ccccc2)cccc1-c1ccn2c(-c3ccc(CNC(C)(C)CO)cc3)cnc2c1` [Example 17, 2-methyl-2-((4-(7-(2-methyl-[1,1′-biphenyl]-3-yl)imidazo[1,2-a]pyridin-3-yl)benzyl)amino)propan-1-ol], with 100 to 1000 nM. Regarding `Cc1c(-c2ccccc2)cccc1-c1ccn2c(-c3ccc(CNCCC(=O)O)cc3)cnc2c1` [Example 18, 3-((4-(7-(2-methyl-[1,1′-biphenyl]-3-yl)imidazo[1,2-a]pyridin-3-yl)benzyl)amino)propanoic acid], the half-inhibitory concentration (IC50) lay in the range of 100 to 1000 nM.

Regarding `Cc1c(-c2ccccc2)cccc1-c1ccn2c(-c3ccc(CNCCS(=O)(=O)O)cc3)cnc2c1` [Example 19, 2-((4-(7-(2-methyl-[1,1′-biphenyl]-3-yl)imidazo[1,2-a]pyridin-3-yl)benzyl)amino)ethane-1-sulfonic acid], the IC50 lay in the range of 100 to 1000 nM.

`COc1cc(-c2cnc3cc(-c4cccc(-c5ccccc5)c4C)ccn23)cc(OC)c1CN1CCCC1C(=O)O` (stereo not shown) [Example 20, 1-(2,6-dimethoxy-4-(7-(2-methyl-[1,1′-biphenyl]-3-yl)imidazo[1,2-ai]pyridin-3-yl)benzyl)piperidine-2-carboxylic acid] displayed an IC50 of 100 to 1000 nM.

`COc1cc(-c2cnc3cc(-c4cccc(-c5ccccc5)c4C)ccn23)cc(OC)c1CN1CCC[C@H]1C(=O)O` [Example 21, (2,6-dimethoxy-4-(7-(2-methyl-[1,1′-biphenyl]-3-yl)imidazo[1,2-a]pyridin-3-yl)benzyl)proline] showed a half-inhibitory concentration (IC50) of 100 to 1000 nM.

`Cc1c(-c2ccccc2)cccc1-c1ccn2c(-c3ccc(CN4CCC[C@@H]4CO)cc3)cnc2c1` [Example 23, (R)-(1-(4-(7-(2-methyl-[1,1′-biphenyl]-3-yl)imidazo[1,2-a]pyridin-3-yl)benzyl)pyrrolidin-2-yl)methanol] displayed a half-maximal inhibitory concentration (IC50) of 100 to 1000 nM.

Compound `Cc1c(-c2ccccc2)cccc1-c1ccn2c(-c3ccc(CN4CCC[C@H]4CO)cc3)cnc2c1` [Example 24, (S)-(1-(4-(7-(2-methyl-[1,1′-biphenyl]-3-yl)imidazo[1,2-a]pyridin-3-yl)benzyl)pyrrolidin-2-yl)methanol] came in with an IC50 of 100 to 1000 nM. Then `Cc1c(-c2ccc3c(c2)OCCO3)cccc1-c1ccn2c(-c3ccc(CN4CC(C(=O)O)C4)cc3)cnc2c1` [Example 25, 1-(4-(7-(3-(2,3-dihydrobenzo[b][1,4]dioxin-6-yl)-2-methylphenyl)imidazo[1,2-a]pyridin-3-yl)benzyl)azetidine-3-carboxylic acid], with 100 to 1000 nM; and `Cc1c(-c2ccc3c(c2)OCCO3)cccc1-c1ccn2c(-c3ccc(CN4CC[C@H]4C(=O)O)cc3)cnc2c1` [Example 26, (S)-1-(4-(7-(3-(2,3-dihydrobenzo[b][1,4]dioxin-6-yl)-2-methylphenyl)imidazo[1,2-a]pyridin-3-yl)benzyl)azetidine-2-carboxylic acid], with 100 to 1000 nM. As for `Cc1c(-c2ccc3c(c2)OCCO3)cccc1-c1ccn2c(-c3ccc(CN4CCC[C@@H]4C(=O)O)cc3)cnc2c1` [Example 27, (4-(7-(3-(2,3-dihydrobenzo[b][1,4]dioxin-6-yl)-2-methylphenyl)imidazo[1,2-a]pyridin-3-yl)benzyl)-D-proline], the half-maximal inhibitory concentration (IC50) lay in the range of 100 to 1000 nM.

The values above are taken from patent US20260265248A1, “NOVEL PD-L1 INHIBITORS” (AFFIRMA BIOTECH S. L., priority 2023, published 2026).
